Reference: the NIST ThermoML archive (doi:10.1016/j.jct.2013.09.042)

What was measured:
[1] = Molar enthalpy of transition or fusion; conditions: Crystal; DSC
[2] = Crystal; for vapor or sublimation pressure: Transpiration method; for Normal melting temperature: DTA

Cc1ccc(N=C2SCC3CCCN2C3)cc1Cl (centres undefined)
Conditions | Molar enthalpy of transition or fusion [kcal/mol] | Normal melting temperature [°C]
[1] | 5.43 | –
[2] | – | 133.5

[2]
Conditions | vapor or sublimation pressure [kPa]
376.15 K | 3.1e-05
377.15 K | 3.39e-05
378.15 K | 3.79e-05
379.15 K | 4.05e-05
381.15 K | 5.21e-05
382.15 K | 5.74e-05
383.15 K | 6.78e-05
384.15 K | 7.6e-05
386.15 K | 9.31e-05
388.15 K | 0.0001239
390.15 K | 0.0001553
392.15 K | 0.0002006
394.15 K | 0.0002521
396.15 K | 0.0003109

Clc1ccc(N=C2SCC3CCCN2C3)cc1Cl (centres undefined)
Conditions | Molar enthalpy of transition or fusion [kcal/mol] | Normal melting temperature [°C]
[1] | 5.62 | –
[2] | – | 97.8

[2]
Conditions | vapor or sublimation pressure [kPa]
352.15 K | 1.15e-05
353.15 K | 1.25e-05
354.15 K | 1.59e-05
355.15 K | 1.82e-05
356.15 K | 2.26e-05
357.15 K | 2.27e-05
358.15 K | 2.56e-05
359.15 K | 2.58e-05
360.15 K | 2.91e-05
361.15 K | 3.49e-05
362.15 K | 4e-05
363.15 K | 4.4e-05

Clc1ccc(N=C2SCC3CCCN2C3)cc1 (centres undefined) [N-(4-chlorophenyl)-3-thia-1-azabicyclo[3.3.1]nonan-2-imine]
Conditions | Molar enthalpy of transition or fusion [kcal/mol] | Normal melting temperature [°C]
[1] | 2.82 | –
[2] | – | 138.7

[2]
Conditions | vapor or sublimation pressure [kPa]
368.15 K | 6.26e-05
369.15 K | 7.04e-05
371.15 K | 8.91e-05
373.15 K | 0.0001094
374.15 K | 0.0001327
375.15 K | 0.000149
376.15 K | 0.0001659
378.15 K | 0.0002065
380.15 K | 0.0002459
382.15 K | 0.0003128
384.15 K | 0.0003887
386.15 K | 0.0004737
388.15 K | 0.0005748
390.15 K | 0.0007333
391.15 K | 0.0008441

CCc1ccc(N=C2SCC3CCCN2C3)cc1 (centres undefined) [N-(4-ethylphenyl)-3-thia-1-azabicyclo[3.3.1]nonan-2-imine]
Conditions | Molar enthalpy of transition or fusion [kcal/mol] | Normal melting temperature [°C]
[1] | 3.92 | –
[2] | – | 121.5

[2]
Conditions | vapor or sublimation pressure [kPa]
359.15 K | 1.09e-05
362.15 K | 1.35e-05
364.15 K | 1.75e-05
366.15 K | 1.98e-05
368.15 K | 2.54e-05
371.15 K | 2.86e-05
374.15 K | 3.88e-05
376.15 K | 3.03e-05
377.15 K | 5.41e-05
380.15 K | 6.76e-05
381.15 K | 7.59e-05
382.15 K | 8.41e-05
384.15 K | 8.43e-05
386.15 K | 0.0001059
389.15 K | 0.0001278

Cc1cccc(N=C2SCC3CCCN2C3)c1 (centres undefined) [N-(m-tolyl)-3-thia-1-azabicyclo[3.3.1]nonan-2-imine]
Conditions | Molar enthalpy of transition or fusion [kcal/mol] | Normal melting temperature [°C]
[1] | 6.33 | –
[2] | – | 125.4

[2]
Conditions | vapor or sublimation pressure [kPa]
353.15 K | 5.65e-05
355.15 K | 7.21e-05
357.15 K | 9.52e-05
359.15 K | 0.0001112
361.15 K | 0.0001522
362.15 K | 0.0001678
364.15 K | 0.0002107
366.15 K | 0.0002637
368.15 K | 0.0003248
370.15 K | 0.0004227
372.15 K | 0.0005258
374.15 K | 0.0006715
376.15 K | 0.0008044
